Measured values from publication PMC9537572, “Elucidation of the binding mechanism of astragaloside IV derivative with human serum albumin and its cardiotoxicity in zebrafish embryos” (Frontiers in Pharmacology, 2022).
“And” between values parts separate entries of the source, which are not always exact repeats. Identical values can stand only once.

Columns and labels:
zebrafish embryos = experiment: Maximum tolerated concentration of LS-102 in zebrafish; assay type: in vivo; settings: for Mortality: 3 dpf zebrafish, n=30; for Deaths: of 30 zebrafish
Experimental: Zebrafish embryos at 3 dpf were randomly selected and treated with LS-102 at concentrations of 1, 10, 100, 250 and 500 μg/ml in water, while the control group was left untreated. The mortality of zebrafish was recorded for each experimental group after 24 h of treatment.

zebrafish = experiment: Arachidonic acid-induced thrombosis in zebrafish; assay type: in vivo; settings: for Staining intensity of cardiac red blood cells (pixels) (mean ± se): 3 h pretreatment, arachidonic acid 1.5 h, n = 10; for Antithrombotic effect (%): vs. model group, arachidonic acid-induced thrombosis
Experimental: A total of 270 melanin allele mutant translucent albino strain zebrafish at 3 dpf were randomly selected, with 30 zebrafish per well in six-well plates. The concentrations of LS-102 were 6.25, 12.5, 25, 50, and 100 µg/ml, while that of AGS IV was 100 µg/ml, and the positive control drug aspirin was 25 µg/ml. After treatment with LS-102 and AGS IV for 3 h, arachidonic acid aqueous solution was administered for 1.5 h to induce a thrombosis model in zebrafish in all experimental groups except the normal group. After staining with o-anisidine, zebrafish were randomly selected from each experimental group and observed under a dissecting microscope and photographed. Data were collected to qualitatively evaluate thrombosis in zebrafish, and the intensity of cardiac erythrocyte staining (length of venous thrombus vs. number of cardiac erythrocytes) in zebrafish was analyzed and counted to establish, the preventive effect of LS-102 and AGS IV with aspirin on thrombosis in zebrafish. The formula was calculated as follows:
Thromboprophylactic effect (%) = S (drug administration group)−S (model group)/S (nomal control group)−S (model group)×100%

## CC(C)(O)C1CCC(C)(C2C(O)CC3(C)C4CC(OC5OC(C(=O)O)C(O)C(O)C5O)C5C(C)(C)C(OC6OCC(O)C(O)C6O)CCC56CC46CCC23C)O1 (stereo not shown) [LS-102, astragalosidic acid]
Zebrafish embryos; 1 µg/mL, 24 h
  Mortality: 0%
  Deaths: 0 tails
Zebrafish embryos; 10 µg/mL, 24 h
  Mortality: 0%
  Deaths: 0 tails
Zebrafish embryos; 100 µg/mL, 24 h
  Mortality: 0%
  Deaths: 0 tails
Zebrafish embryos; 250 µg/mL, 24 h
  Mortality: 13.3%
  Deaths: 4 tails
Zebrafish embryos; 500 µg/mL, 24 h
  Mortality: 100%
  Deaths: 30 tails
Zebrafish embryos; concentrations ranging from 1 to 100 µg/ml, 24 h
  Mortality (in words): no mortality
Zebrafish embryos; zebrafish 3 dpf, 24 h treatment
  Maximum-tolerated concentration (MTC): 100 µg/mL
zebrafish; 6.25 µg/ml
  Staining intensity of cardiac red blood cells (pixels) (mean ± se): 1280 pixels and 1280 ± 119 pixels
  Antithrombotic effect (%): −13%
zebrafish; 12.5 µg/ml
  Staining intensity of cardiac red blood cells (pixels) (mean ± se): 1521 pixels and 1521 ± 72 pixels
  Antithrombotic effect (%): 14%
zebrafish; 25 µg/ml
  Staining intensity of cardiac red blood cells (pixels) (mean ± se): 1597 pixels and 1597 ± 65 pixels
  Antithrombotic effect (%): 22%
zebrafish; 50 µg/ml
  Staining intensity of cardiac red blood cells (pixels) (mean ± se): 1796 pixels and 1796 ± 54 pixels
  Antithrombotic effect (%): 44%
zebrafish; 100 µg/ml
  Staining intensity of cardiac red blood cells (pixels) (mean ± se): 1950 pixels and 1950 ± 33 pixels
  Antithrombotic effect (%): 61%
